For this test, the target named is T1, hematopoietic progenitor kinase 1 (HPK1) (Homo sapiens, UniProt Q92918).
T1 construct: gene MAP4K1
Put plainly: radiometric [γ-33P]-ATP kinase assay (Eurofins KinaseProfiler), recombinant human HPK1, MBP substrate. It counts as biochemical.

T1 sequence (Q92918 whole entry): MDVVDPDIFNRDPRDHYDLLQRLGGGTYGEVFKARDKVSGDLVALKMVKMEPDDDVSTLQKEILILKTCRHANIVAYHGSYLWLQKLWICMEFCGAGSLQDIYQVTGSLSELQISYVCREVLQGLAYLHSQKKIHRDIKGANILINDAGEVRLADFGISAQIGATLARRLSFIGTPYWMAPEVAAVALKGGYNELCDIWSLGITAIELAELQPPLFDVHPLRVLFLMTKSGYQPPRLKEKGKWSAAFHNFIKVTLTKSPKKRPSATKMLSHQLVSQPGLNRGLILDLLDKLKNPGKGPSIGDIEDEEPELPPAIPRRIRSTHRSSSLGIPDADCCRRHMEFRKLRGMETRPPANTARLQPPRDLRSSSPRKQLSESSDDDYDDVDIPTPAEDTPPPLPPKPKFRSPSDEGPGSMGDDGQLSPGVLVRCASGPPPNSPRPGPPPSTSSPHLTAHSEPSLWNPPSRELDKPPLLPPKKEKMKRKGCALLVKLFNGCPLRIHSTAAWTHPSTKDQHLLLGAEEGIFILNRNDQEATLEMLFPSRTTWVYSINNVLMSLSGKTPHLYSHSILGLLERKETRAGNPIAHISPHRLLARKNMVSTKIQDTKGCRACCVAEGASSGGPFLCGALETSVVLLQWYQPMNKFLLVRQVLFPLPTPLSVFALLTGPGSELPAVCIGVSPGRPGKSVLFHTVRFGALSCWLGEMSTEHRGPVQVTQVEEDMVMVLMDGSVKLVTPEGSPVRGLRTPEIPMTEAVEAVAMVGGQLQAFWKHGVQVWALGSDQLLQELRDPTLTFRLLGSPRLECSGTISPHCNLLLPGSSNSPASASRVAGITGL

Broadly, the IC50 is the concentration at which inhibition is half-maximal. As to `CC(C)S(=O)(=O)c1ccccc1Nc1nc(Nc2ccc3c(c2)C(C)(C)OC3=O)ncc1Cl` [KHK-6], the IC50 was 0.02 µM.

Source of the values: article PMC11207149, “Novel hematopoietic progenitor kinase 1 inhibitor KHK-6 enhances T-cell activation” (PLOS ONE, 2024).
